Measured values as given in ChEMBL document CHEMBL1157403, “Lanostane-type triterpenoids from the roots of Kadsura coccinea” (2008).

What follows are compounds tested on HL-60 (assay: Antiproliferative activity against human HL60 cells after 3 days by trypan blue staining). Settings: HL-60, 72 h.
Type: functional

Row | Compound | GI50
1 | O=c1[nH]cc(F)c(=O)[nH]1 [FLUOROURACIL] | 3.8 µM
2 | C=C(C)[C@@H]1CC=C2[C@H](CC[C@]3(C)[C@@H]([C@H](C)CC(=O)CC(C)C)CC[C@@]23C)[C@@]1(C)CCC(=O)O [SECO-COCCINIC ACID A] | 6.8 µM
3 | C=C(C)[C@@H]1CC=C2[C@H](CC[C@]3(C)[C@@H]([C@H](C)CC(=O)C=C(C)C)CC[C@@]23C)[C@@]1(C)CCC(=O)O [SECO-COCCINIC ACID B] | 13.3 µM
4 | C=C(C)[C@@H]1CC=C2[C@H](CC[C@]3(C)[C@@H]([C@H](C)CC(=O)CC(C)(C)O)CC[C@@]23C)[C@@]1(C)CCC(=O)O [SECO-COCCINIC ACID C] | 12.1 µM
5 | C=C(C)[C@H](O)CC[C@@H](C)[C@H]1CC[C@@]2(C)C3=CC[C@@H](C(=C)C)[C@](C)(CCC(=O)O)[C@@H]3CC[C@]12C [SECO-COCCINIC ACID E] | 42.1 µM
